The test system of assay [1] is conscious rat with acute gastric fistula (gastric secretion). Kind of assay: Anti-secretory activity in the conscious rat with acute gastric fistula. Type of assay: in vivo, rat (fasted female rats). The settings on record: 16 μg/Kg i.v., N 3 (A), 2 (B). As to the method: That the compounds of this invention are active as anti-secretory and anti-ulcerogenic agents can be seen by administering the following compounds: Compound A= nat 11R-methyl-16R-fluoro-15R-hydroxy-9-oxo-prost-(Z)-5-enoic acid. Compound b= nat 11R-methyl-16R-fluoro-9,15-dioxo-prost-(Z)-5-enoic acid to rats by the following test:
The compounds were tested as gastric secretory depressants in the unanesthetized rat with acute gastric fistula. […] On the day of the experiment, water infusion through the stomach was begun for a period of 60 minutes prior to drug administration. During this baseline period, the pH of the secretory flow was about 1.5 for each animal. Individual samples were collected at 10-minute intervals during this baseline period to monitor the pH. The compound dissolved in saline was administered intravenously (i.v.), 16 μg/Kg i.v., after this baseline period and samples were continuously collected for 60 minutes. The samples of gastric contents were subsequently assayed for pH, volume, total acid content (μ Eq/ml) and total acid output for 10 minutes (μ Eq/10 minutes).

For assay [2], the system named is DOCA-Na Hypertensive Rat Model. The assay can be described thus: Oral activity on systolic blood pressure in the DOCA-Na hypertensive rat model. Format: in vivo, rat (Charles River male rats). The settings on record: N 6. The procedure: That the compounds of this invention are active as blood pressure lowering agents can be seen from the administration of nat. 11R-methyl-16R-fluoro-9,15-dioxoprosta-(Z)-5-(E)-13-dienoic acid to rats by the following test:
Charles River male rats weighing 170-210 grams are used in the present study. DOCA-Na hypertension is induced in these rats by unilateral nephrectomy followed by subcutaneous implantation of a 25 mg deoxycorticosterone acetate pellet. Animals are placed in individual cages and receive 0.9% by weight sodium chloride aqueous solution and rat chow diet ad libitum. Two weeks are allowed to elapse from the time of surgery for development of hypertension, i.e. systolic blood pressure above 150 mmHg. Systolic blood pressure is measured indirectly from the tail of unanesthetized rats (restrained in holders heated for 5-10 minutes at 37°-38° C.) using a pneumatic pulse transducer (piezoelectric crystal and occluding cuff). The transducer and occluding cuff are coupled to a two-channel recorder. Control readings are taken prior to drug and at 1, 3, 6, 24, 48 and 72 hours post administration of drug. All drugs are prepared fresh in a mixture of tris(hydroxymethyl)amino methane in 95% ethanol (5% wt/V) and orally administered to rats. The placebo that was used was the mixture tris(hydroxymethyl)amino methane in ethanol without drug.

Setting [3] is: 10 min after administration, rounded figures.
Setting [4] is: 10 min after administration, rounded, 0 = no effect.
Setting [5] is: 10 min after administration, rounded, 0 = no effect, or increase in the hydrogen ion concentration.
The mark [6] stands for this setting: 20 min after administration, rounded figures.
Setting [7] is: 20 min after administration, rounded, 0 = no effect.
Setting [8] is: 30 min after administration, rounded figures.
[9] abbreviates: 40 min after administration, rounded figures.
Setting [10] is: 50 min after administration, rounded figures.
The mark [11] stands for this setting: 60 min after administration, rounded figures.
The mark [12] stands for this setting: 60 min after administration, rounded, 0 = no effect.

This is an account of results in patent publication US4163016A, “16-Substituted prostaglandins” (Hoffmann-La Roche Inc., priority 1977, dated 1979).

SMILES strings stand for the structures.

Consider `CCCC[C@@H](F)[C@H](O)CC[C@H]1[C@H](C)CC(=O)[C@@H]1C/C=C\CCCC(=O)O` [Compound A, nat 11R-methyl-16R-fluoro-15R-hydroxy-9-oxo-prost-(Z)-5-enoic acid], for which the “Acid Output, % Inhibition (calculated from μ Eq/10 min period of total acid output)” value is 4% in assay [1] (setting [3]); 17% in assay [1] (setting [6]); 33% in assay [1] (setting [8]); 26% in assay [1] (setting [9]); 43% in assay [1] (setting [10]); 25% in assay [1] (setting [11]). Besides, the “pH, % Increment over baseline” value is 5% in assay [1] (setting [3]); 6% in assay [1] (setting [6]); 4% in assay [1] (setting [8]); 5% in assay [1] (setting [9]); 9% in assay [1] (setting [10]); 9% in assay [1] (setting [11]). Moreover, the “Volume, % Inhibition” value in assay [1] (setting [4]) was determined as 0%; in assay [1] (setting [7]), 0%; in assay [1] (setting [8]), 58%; in assay [1] (setting [9]), 21%; in assay [1] (setting [10]), 9%; in assay [1] (setting [12]) it was 0%. Further, the “Acid Conc., % Inhibition (calculated from μ Eq/ml of total acid concentration)” value in assay [1] (setting [5]) is listed as 0%; in assay [1] (setting [6]), 22%; in assay [1] (setting [8]) it was 20%; in assay [1] (setting [9]), 23%; in assay [1] (setting [10]), 38%; in assay [1] (setting [11]) it was 22%.

For the compound `CCCC[C@@H](F)C(=O)CC[C@H]1[C@H](C)CC(=O)[C@@H]1C/C=C\CCCC(=O)O` [Compound B, nat 11R-methyl-16R-fluoro-9,15-dioxo-prost-(Z)-5-enoic acid], the “Acid Output, % Inhibition (calculated from μ Eq/10 min period of total acid output)” value in assay [1] (setting [3]) is on record as 40%; in assay [1] (setting [6]) it was 22%; in assay [1] (setting [8]), 15%; in assay [1] (setting [9]) it was 14%; in assay [1] (setting [10]), 20%; in assay [1] (setting [11]) it was 48%. For the same compound, the “pH, % Increment over baseline” value is on record as 2% in assay [1] (setting [3]); 2% in assay [1] (setting [6]); 2% in assay [1] (setting [8]); 2% in assay [1] (setting [9]); 2% in assay [1] (setting [10]); 5% in assay [1] (setting [11]). The “Volume, % Inhibition” value is listed as 9% in assay [1] (setting [4]); 30% in assay [1] (setting [7]); 4% in assay [1] (setting [8]); 11% in assay [1] (setting [9]); 16% in assay [1] (setting [10]); 35% in assay [1] (setting [12]). In addition, the “Acid Conc., % Inhibition (calculated from μ Eq/ml of total acid concentration)” value is 33% in assay [1] (setting [5]); 6% in assay [1] (setting [6]); 11% in assay [1] (setting [8]); 2% in assay [1] (setting [9]); 15% in assay [1] (setting [10]); 19% in assay [1] (setting [11]).

As for `CCCC[C@@H](F)C(=O)/C=C/[C@H]1[C@H](C)CC(=O)[C@@H]1C/C=C\CCCC(=O)O` [nat 11R-methyl-16R-fluoro-9,15-dioxoprosta-5(Z),13(E)-dienoic acid], the “Systolic Blood Pressure” value is reported as 200±6 mmHg in assay [2] (1.0 mg/kg p.o., 1 h); 205±6 mmHg in assay [2] (1.0 mg/kg p.o., 3 h); 203±8 mmHg in assay [2] (1.0 mg/kg p.o., 6 h); 199±6 mmHg in assay [2] (1.0 mg/kg p.o., 24 h); 196±6 mmHg in assay [2] (1.0 mg/kg p.o., time 0 h (control reading prior to drug)); 175±2 mmHg in assay [2] (5.0 mg/kg p.o., 1 h, * p<.05). Further, the “Systolic Blood Pressure” value is on record as 167±4 mmHg in assay [2] (5.0 mg/kg p.o., 3 h, * p<.05); 166±3 mmHg in assay [2] (5.0 mg/kg p.o., 6 h, * p<.05); 163±4 mmHg in assay [2] (5.0 mg/kg p.o., 24 h, * p<.05); 171±7 mmHg in assay [2] (5.0 mg/kg p.o., 48 h, * p<.05); 193±6 mmHg in assay [2] (5.0 mg/kg p.o., 72 h); 197±3 mmHg in assay [2] (5.0 mg/kg p.o., time 0 h (control reading prior to drug)).
